Results from US20090270371A1, “QUINOLINE DERIVATIVES USEFUL IN THE TREATMENT OF MGLUR5 RECEPTOR-MEDIATED DISORDERS” (priority 2005, published 2009).

Target: T1, rat mGluR5 receptors (Rattus norvegicus, UniProt P31424)
T1 construct: rat cerebro-cortical membrane preparation was used; from tissue; host or cells: rat cerebral cortex membranes
Assay: mGluR5 receptor binding test, rat cerebro-cortical membrane preparation, [3H]-M-MPEP
Conditions: affinity for rat mGluR5 receptors; [3H]-M-MPEP (2 nM) radioligand
Method: The mGluR5 receptor binding was determined according to the modified method of Gasparini et. al. (Bioorg. Med. Chem. Lett., 2000, 12, 407). Based on the high homology between the human and rat mGluR5 receptors, rat cerebro-cortical membrane preparation was used to determine the binding characteristics of the reference compounds and novel compounds to the rat mGluR5. The A18 cell line expressing hmGluR5a (purchased from Euroscreen) was used to determine binding characteristics of the chemical compounds to the human mGluR5a receptor. [^3H]-M-MPEP (2 nM) was used as radioligand. The nonspecific binding was determined in the presence of 10 μM M-MPEP.

T1 sequence (P31424 21-1203): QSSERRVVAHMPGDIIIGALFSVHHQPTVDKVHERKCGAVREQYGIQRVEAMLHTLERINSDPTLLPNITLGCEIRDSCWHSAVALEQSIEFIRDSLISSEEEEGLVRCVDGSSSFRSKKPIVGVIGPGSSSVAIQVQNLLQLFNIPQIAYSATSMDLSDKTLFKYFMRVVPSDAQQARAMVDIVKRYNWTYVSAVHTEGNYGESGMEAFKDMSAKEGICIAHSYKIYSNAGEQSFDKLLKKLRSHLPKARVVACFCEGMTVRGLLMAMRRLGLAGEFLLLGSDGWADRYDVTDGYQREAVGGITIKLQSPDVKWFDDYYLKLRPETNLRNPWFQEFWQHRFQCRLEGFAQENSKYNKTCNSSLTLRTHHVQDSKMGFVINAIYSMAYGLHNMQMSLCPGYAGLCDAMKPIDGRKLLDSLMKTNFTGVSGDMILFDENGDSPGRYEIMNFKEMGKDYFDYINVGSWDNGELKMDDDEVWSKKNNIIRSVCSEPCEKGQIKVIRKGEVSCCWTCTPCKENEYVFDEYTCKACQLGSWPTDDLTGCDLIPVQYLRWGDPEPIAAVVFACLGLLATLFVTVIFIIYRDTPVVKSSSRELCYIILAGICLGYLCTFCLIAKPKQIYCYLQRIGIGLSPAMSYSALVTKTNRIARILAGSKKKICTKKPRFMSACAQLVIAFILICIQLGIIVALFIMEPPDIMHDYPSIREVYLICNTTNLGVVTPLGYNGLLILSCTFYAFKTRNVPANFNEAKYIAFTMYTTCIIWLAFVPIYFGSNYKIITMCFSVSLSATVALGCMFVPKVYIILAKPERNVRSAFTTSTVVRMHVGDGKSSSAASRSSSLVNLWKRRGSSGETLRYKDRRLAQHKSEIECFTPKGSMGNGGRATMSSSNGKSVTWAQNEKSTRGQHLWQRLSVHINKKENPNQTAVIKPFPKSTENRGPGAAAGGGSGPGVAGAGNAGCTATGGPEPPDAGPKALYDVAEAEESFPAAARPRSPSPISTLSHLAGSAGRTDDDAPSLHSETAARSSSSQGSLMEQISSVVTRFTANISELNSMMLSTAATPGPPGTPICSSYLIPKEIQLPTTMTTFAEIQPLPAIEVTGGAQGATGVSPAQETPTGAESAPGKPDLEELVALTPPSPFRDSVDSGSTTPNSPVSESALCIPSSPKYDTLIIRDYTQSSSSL

Row | SMILES | Ki [nM]
1 | Cc1ccc(S(=O)(=O)c2cnc3cc4c(cc3c2N2CCOCC2)OCCO4)cc1 [Compound 94] | > 500
2 | O=S(=O)(c1ccccc1)c1cnc2cc3c(cc2c1N1CCCCCC1)OCCO3 [Compound 95] | > 500
3 | CCc1ccc2ncc(S(=O)(=O)c3ccc(C)cc3)c(N3CCCCC3)c2c1 [Compound 96] | > 500
4 | Cc1ccc(S(=O)(=O)c2cnc3ccccc3c2N2CCC3(CC2)OCCO3)cc1 [Compound 97] | > 500
5 | CCOC(=O)C1CCN(c2c(S(=O)(=O)c3ccc(C)cc3)cnc3ccc(OCC)cc23)CC1 [Compound 98] | > 500
6 | CCOC(=O)C1CCCN(c2c(S(=O)(=O)c3ccc(C)cc3)cnc3ccc(F)cc23)C1 (stereo not shown) [Compound 99] | > 500
7 | O=S(=O)(c1ccc(Cl)cc1)c1cnc2ccc(F)cc2c1N1CCN(Cc2ccccc2)CC1 [Compound 100] | > 500
8 | Cc1ccc(S(=O)(=O)c2cnc3ccccc3c2N2CCOCC2)cc1 [Compound 101] | > 500
9 | CCOc1ccc2ncc(S(=O)(=O)c3ccc(OC)cc3)c(N3CCC(C)CC3)c2c1 [Compound 102] | > 500
10 | COc1ccc2ncc(S(=O)(=O)c3ccc(C)cc3)c(NCc3ccc(F)cc3)c2c1 [Compound 103] | > 500
11 | Cc1ccc(S(=O)(=O)c2cnc3ccc(C)cc3c2N2CCOCC2)cc1 [Compound 104] | > 500
12 | CCc1ccc2ncc(S(=O)(=O)c3ccc(Cl)cc3)c(N3CCOCC3)c2c1 [Compound 105] | > 500
13 | COc1ccc2ncc(S(=O)(=O)c3ccc(Cl)cc3)c(N3CCN(Cc4ccccc4)CC3)c2c1 [Compound 106] | > 500
14 | O=S(=O)(c1ccccc1)c1cnc2ccc(F)cc2c1N1CCCCC1 [Compound 107] | > 500
15 | CC1CCN(c2c(S(=O)(=O)c3ccccc3)cnc3ccc(Cl)cc23)CC1 [Compound 108] | > 500
16 | COc1ccc2ncc(S(=O)(=O)c3ccccc3)c(N3CCC(C)CC3)c2c1 [Compound 109] | > 500
17 | CCN(CC)c1c(S(=O)(=O)c2ccc(C)cc2)cnc2ccc(OC)cc12 [Compound 110] | > 500
18 | COc1ccc2ncc(S(=O)(=O)c3ccccc3)c(N3CCN(Cc4ccccc4)CC3)c2c1 [Compound 111] | > 500
19 | COc1ccc2ncc(S(=O)(=O)c3ccc(Cl)cc3)c(N3CCCCCC3)c2c1 [Compound 112] | > 500
20 | COc1cccc(Nc2c(S(=O)(=O)c3ccc(C)cc3)cnc3ccccc23)c1 [Compound 113] | > 500
21 | CCOc1ccc2ncc(S(=O)(=O)c3ccc(C)cc3)c(N3CCC(C)CC3)c2c1 [Compound 114] | > 500
22 | O=S(=O)(c1ccccc1)c1cnc2cc3c(cc2c1N1CCN(c2ccccc2)CC1)OCCO3 [Compound 115] | > 500

Row | SMILES | Ki [nM]
23 | CCOc1ccc2ncc(S(=O)(=O)c3ccccc3)c(N3CCC(C)CC3)c2c1 [Compound 116] | > 500
24 | CCOc1ccc2ncc(S(=O)(=O)c3ccc(C)cc3)c(N3CCN(c4ccccc4F)CC3)c2c1 [Compound 117] | > 500
25 | O=S(=O)(c1ccccc1)c1cnc2ccc(F)cc2c1N1CCCCCC1 [Compound 118] | > 500
26 | CCOc1ccc2ncc(S(=O)(=O)c3ccc(C)cc3)c(N3CCCCCC3)c2c1 [Compound 119] | > 500
27 | O=S(=O)(c1ccc(Cl)cc1)c1cnc2ccc(F)cc2c1N1CCOCC1 [Compound 120] | > 500
28 | COc1ccc2ncc(S(=O)(=O)c3ccc(C)cc3)c(NCc3ccc(C)cc3)c2c1 [Compound 121] | > 500
29 | COc1ccc(S(=O)(=O)c2cnc3ccc(Cl)cc3c2NCc2ccc(C)cc2)cc1 [Compound 122] | > 500
30 | Cc1ccc2ncc(S(=O)(=O)c3ccc(Cl)cc3)c(N3CCN(c4ccccc4)CC3)c2c1 [Compound 123] | > 500
31 | CCN(CC)c1c(S(=O)(=O)c2ccccc2)cnc2ccc(F)cc12 [Compound 124] | > 500
32 | CCOc1ccc2ncc(S(=O)(=O)c3ccc(OC)cc3)c(N3CCOCC3)c2c1 [Compound 125] | > 500
33 | CCc1ccc2ncc(S(=O)(=O)c3ccc(OC)cc3)c(N3CCN(C)CC3)c2c1 [Compound 127] | > 500
34 | COc1ccc2ncc(S(=O)(=O)c3ccccc3)c(N3CCN(C)CC3)c2c1 [Compound 128] | > 500
35 | CCOC(=O)N1CCN(c2c(S(=O)(=O)c3ccc(Cl)cc3)cnc3ccccc23)CC1 [Compound 129] | > 500
36 | CCc1ccc2ncc(S(=O)(=O)c3ccc(C)cc3)c(NCc3ccc(F)cc3)c2c1 [Compound 130] | > 500
37 | CCOC(=O)N1CCN(c2c(S(=O)(=O)c3ccc(C)cc3)cnc3ccc(C)cc23)CC1 [Compound 132] | > 500
38 | CCN(CC)c1c(S(=O)(=O)c2ccc(Cl)cc2)cnc2ccc(F)cc12 [Compound 133] | > 500
39 | CCc1ccc2ncc(S(=O)(=O)c3ccc(OC)cc3)c(N3CCCCC3)c2c1 [Compound 134] | > 500
40 | O=S(=O)(c1ccccc1)c1cnc2cc3c(cc2c1N1CCCCC1)OCCO3 [Compound 135] | > 500
41 | CC1CCN(c2c(S(=O)(=O)c3ccccc3)cnc3ccc(F)cc23)CC1 [Compound 136] | > 500
42 | CC1CCN(c2c(S(=O)(=O)c3cc(F)cc(F)c3)cnc3ccc(F)cc23)CC1 [Compound 139] | > 500
43 | Cc1ccc2ncc(S(=O)(=O)c3cccc(C#N)c3)c(N3CCC(C)CC3)c2c1 [Compound 155] | > 500

Results, then the compound that gave them:

Row | Ki [nM] | SMILES
44 | > 500 | Cc1ccc(S(=O)(=O)c2cnc3ccccc3c2N2CCN(Cc3ccccc3)CC2)cc1 [Compound 80]
45 | > 500 | CCOC(=O)C1CCN(c2c(S(=O)(=O)c3ccccc3)cnc3ccc(CC)cc23)CC1 [Compound 81]
46 | > 500 | O=S(=O)(c1ccccc1)c1cnc2cc3c(cc2c1N1CCCC1)OCCO3 [Compound 82]
47 | > 500 | CCc1ccc2ncc(S(=O)(=O)c3ccc(C)cc3)c(N(CC)CC)c2c1 [Compound 83]
48 | > 500 | CCc1ccc2ncc(S(=O)(=O)c3ccc(Cl)cc3)c(N(CC)CC)c2c1 [Compound 84]
49 | > 500 | CCc1ccc2ncc(S(=O)(=O)c3ccc(C)cc3)c(NCc3ccccc3)c2c1 [Compound 85]
50 | > 500 | Cc1ccc(S(=O)(=O)c2cnc3ccc(C)cc3c2N2CCCCCC2)cc1 [Compound 86]
51 | > 500 | COc1ccc2ncc(S(=O)(=O)c3ccc(C)cc3)c(NCc3ccccc3)c2c1 [Compound 87]
52 | > 500 | COc1ccc(S(=O)(=O)c2cnc3ccc(OC)cc3c2N2CCC(C)CC2)cc1 [Compound 88]
53 | 200 to 500 | O=S(=O)(c1ccccc1)c1cnc2ccccc2c1N1CCCCCC1 [Compound 89]
54 | > 500 | Cc1ccc2ncc(S(=O)(=O)c3ccccc3)c(N3CCN(Cc4ccccc4)CC3)c2c1 [Compound 90]
55 | > 500 | Cc1ccc(S(=O)(=O)c2cnc3cc4c(cc3c2N2CCC(C)CC2)OCCO4)cc1 [Compound 92]
56 | > 500 | Cc1ccc2ncc(S(=O)(=O)c3ccc(Cl)cc3)c(N3CCCCC3)c2c1 [Compound 93]
57 | 200 to 500 | CCOC(=O)N1CCN(c2c(S(=O)(=O)c3ccc(Cl)cc3)cnc3ccc(C)cc23)CC1 [Compound 131]
58 | < 200 | CC1CCN(c2c(S(=O)(=O)c3ccc(Cl)cc3)cnc3ccc(F)cc23)CC1 [Compound 137]
59 | 200 to 500 | CC1CCN(c2c(S(=O)(=O)c3cc(Cl)cc(Cl)c3)cnc3ccc(F)cc23)CC1 [Compound 138]
60 | < 200 | CC1CCN(c2c(S(=O)(=O)c3cccc(C#N)c3)cnc3ccc(F)cc23)CC1 [Compound 140]
61 | < 200 | CC1CCN(c2c(S(=O)(=O)c3ccc(F)cc3)cnc3ccc(F)cc23)CC1 [Compound 141]

Row | Ki [nM] | SMILES
62 | < 200 | COc1ccc(S(=O)(=O)c2cnc3ccc(F)cc3c2N2CCC(C)CC2)cc1 [Compound 142]
63 | 200 to 500 | COc1ccc(S(=O)(=O)c2cnc3ccc(F)cc3c2N2CCC(C)CC2)cc1OC [Compound 143]
64 | 200 to 500 | CC1CCN(c2c(S(=O)(=O)c3cccc(F)c3)cnc3ccc(F)cc23)CC1 [Compound 144]
65 | < 200 | COc1cccc(S(=O)(=O)c2cnc3ccc(F)cc3c2N2CCC(C)CC2)c1 [Compound 145]
66 | < 200 | Cc1ccc(S(=O)(=O)c2cnc3ccc(F)cc3c2N2CCC(C)CC2)cc1C [Compound 146]
67 | < 200 | COc1ccc(S(=O)(=O)c2cnc3ccc(F)cc3c2N2CCC(C)CC2)cc1Cl [Compound 147]
68 | < 200 | CC1CCN(c2c(S(=O)(=O)c3cccc(Cl)c3)cnc3ccc(F)cc23)CC1 [Compound 148]
69 | < 200 | CC1CCN(c2c(S(=O)(=O)c3ccc(Cl)c(Cl)c3)cnc3ccc(F)cc23)CC1 [Compound 149]
70 | 200 to 500 | CC1CCN(c2c(S(=O)(=O)c3ccc(C#N)cc3)cnc3ccc(F)cc23)CC1 [Compound 150]
71 | < 200 | Cc1cc(C)cc(S(=O)(=O)c2cnc3ccc(F)cc3c2N2CCC(C)CC2)c1 [Compound 151]
72 | < 200 | CC1CCN(c2c(S(=O)(=O)c3ccc(F)c(F)c3)cnc3ccc(F)cc23)CC1 [Compound 152]
73 | 200 to 500 | Cc1ccc2ncc(S(=O)(=O)c3cc(Cl)cc(Cl)c3)c(N3CCC(C)CC3)c2c1 [Compound 153]
74 | 200 to 500 | Cc1ccc2ncc(S(=O)(=O)c3cc(F)cc(F)c3)c(N3CCC(C)CC3)c2c1 [Compound 154]
75 | < 200 | Cc1ccc2ncc(S(=O)(=O)c3ccc(F)cc3)c(N3CCC(C)CC3)c2c1 [Compound 156]
76 | 200 to 500 | COc1ccc(S(=O)(=O)c2cnc3ccc(C)cc3c2N2CCC(C)CC2)cc1 [Compound 157]
77 | 200 to 500 | Cc1ccc2ncc(S(=O)(=O)c3ccc(Cl)cc3)c(N3CCC(C)CC3)c2c1 [Compound 158]
78 | < 200 | Cc1ccc2ncc(S(=O)(=O)c3cccc(F)c3)c(N3CCC(C)CC3)c2c1 [Compound 159]
79 | < 200 | COc1cccc(S(=O)(=O)c2cnc3ccc(C)cc3c2N2CCC(C)CC2)c1 [Compound 160]
